# Numbered stars: 1 amine (or outer) side, 2 acyl side, 3 side chain; on linkers, the order of the positions; unused ones are H or OH. Bridge positions count the residues as written; N and C are the ends. Square brackets hold non-standard residues; d marks the D form. Peptide text beside a SMILES is read from it. Pro(trans-4-Ph) = O=C(O)[C@@H]1C[C@@H](c2ccccc2)CN1; Pro(trans-4-F) = O=C(O)[C@@H]1C[C@@H](F)CN1; Bip = N[C@@H](Cc1ccc(-c2ccccc2)cc1)C(=O)O; Tpi = O=C(O)[C@@H]1Cc2c([nH]c3ccccc23)CN1; 1Nal = N[C@@H](Cc1cccc2ccccc12)C(=O)O; 2Nal = N[C@@H](Cc1ccc2ccccc2c1)C(=O)O; TBMB = c1c(C[*:1])cc(C[*:3])cc1C[*:2]; Hyp = O=C(O)[C@@H]1C[C@@H](O)CN1; 3Pal = N[C@@H](Cc1cccnc1)C(=O)O; 4Pal = N[C@@H](Cc1ccncc1)C(=O)O; Tic = O=C(O)[C@@H]1Cc2ccccc2CN1; Pen = CC(C)(S)[C@H](N)C(=O)O; Aib = CC(C)(N)C(=O)O; βAla = NCCC(=O)O
# Assay: Plasma stability profiling Method #1 (MALDI-TOF, 35% plasma), rat plasma
# Format: in vitro ADME
# Details: Table 12; method #1
# Method: A rapid plasma stability profiling assay was developed that employed mass spectrometric detection (MALDI-TOF, Voyager DE, Applied Biosystems) of the parent mass, until the time when the parent peptide mass was no longer observable. Specifically, 200 uM of peptide was incubated in the presence of 35% rat or human plasma (Sera labs, using citrate as anticoagulant) at 37 deg C., which was supplemented with 1×PBS (derived from a 10×PBS Stock, Sigma). At various time points (i.e. t=0, 3, 24 hrs, henceafter daily up to 10 days), 2 uL of sample was added to 18 uL of 30 mM ammonium bicarbonate in a 1:1 mixture of acetonitrile:H2O. Samples were frozen at −80 deg C. until the time of analysis. For mass spectrometric analysis that determines the approximate detection window of the peptide, the acetonitrile:H2O-diluted sample of a given time point was spotted directly (0.7 uL) onto the MALDI plate. Matrix (alpha-cyanocinnamic acid, Sigma, prepared as a saturated solution in 1:1 acetonitrile:water containing 0.1% trifluoroacetic acid) was layered over the sample (1 uL). At a similar laser intensity setting on the MALDI TOF, the time could then be determined until parent peptide was no longer detectable. It should be noted that this is a qualitative assay serves to detect relative changes in plasma stability.
row,SMILES,"Observable in rat plasma, for days [days]"
1,CC(=O)N[C@H]1CSCc2cc3cc(c2)CSC[C@H](NC(=O)[C@H](CCCNC(=N)N)NC(=O)[C@H](C)NC(=O)[C@@H]2CCCN2C(=O)[C@H](Cc2cccnc2)NC(=O)[C@H](CO)NC1=O)C(=O)N[C@@H](CC(C)C)C(=O)N[C@@H](Cc1c[nH]cn1)C(=O)N[C@@H](CCC(N)=O)C(=O)N[C@@H](CC(=O)O)C(=O)N[C@@H](CC(C)C)C(=O)N[C@H](C(N)=O)CSC3 [Ac-(06-34-18) 3Pal2] (Ac-CS[3Pal]PARCLHQDLC-NH2; linker 1-7-13 via TBMB),2
2,CC(=O)N[C@H]1CSCc2cc3cc(c2)CSC[C@H](NC(=O)[C@H](CCCNC(=N)N)NC(=O)[C@H](C)NC(=O)[C@@H]2CCCN2C(=O)[C@H](Cc2ccc4ccccc4c2)NC(=O)[C@H](CO)NC1=O)C(=O)N[C@@H](CC(C)C)C(=O)N[C@@H](Cc1c[nH]cn1)C(=O)N[C@@H](CCC(N)=O)C(=O)N[C@@H](CC(=O)O)C(=O)N[C@@H](CC(C)C)C(=O)N[C@H](C(N)=O)CSC3 [Ac-(06-34-18) 2NAL2] (Ac-CS[2Nal]PARCLHQDLC-NH2; linker 1-7-13 via TBMB),2
3,CC(=O)N[C@H]1CSCc2cc3cc(c2)CSC[C@H](NC(=O)[C@H](CCCNC(=N)N)NC(=O)[C@H](C)NC(=O)[C@@H]2CCCN2C(=O)[C@H](Cc2ccncc2)NC(=O)[C@H](CO)NC1=O)C(=O)N[C@@H](CC(C)C)C(=O)N[C@@H](Cc1c[nH]cn1)C(=O)N[C@@H](CCC(N)=O)C(=O)N[C@@H](CC(=O)O)C(=O)N[C@@H](CC(C)C)C(=O)N[C@H](C(N)=O)CSC3 [Ac-(06-34-18) 4Pal2] (Ac-CS[4Pal]PARCLHQDLC-NH2; linker 1-7-13 via TBMB),2
4,"CC(=O)N[C@H]1CSCc2cc3cc(c2)CSC[C@H](NC(=O)[C@H](CCCNC(=N)N)NC(=O)[C@H](C)NC(=O)[C@@H]2CCCN2C(=O)[C@H](Cc2ccc(-c4ccccc4)cc2)NC(=O)[C@H](CO)NC1=O)C(=O)N[C@@H](CC(C)C)C(=O)N[C@@H](Cc1c[nH]cn1)C(=O)N[C@@H](CCC(N)=O)C(=O)N[C@@H](CC(=O)O)C(=O)N[C@@H](CC(C)C)C(=O)N[C@H](C(N)=O)CSC3 [Ac-(06-34-18) 4,4,BPal2] (Ac-CS[Bip]PARCLHQDLC-NH2; linker 1-7-13 via TBMB)",2
5,CC(=O)N[C@H]1CSCc2cc3cc(c2)CSC[C@H](NC(=O)[C@H](CCCNC(=N)N)NC(=O)[C@H](C)NC(=O)[C@@H]2CCCN2C(=O)[C@H](Cc2cccc4ccccc24)NC(=O)[C@H](CO)NC1=O)C(=O)N[C@@H](CC(C)C)C(=O)N[C@@H](Cc1c[nH]cn1)C(=O)N[C@@H](CCC(N)=O)C(=O)N[C@@H](CC(=O)O)C(=O)N[C@@H](CC(C)C)C(=O)N[C@H](C(N)=O)CSC3 [Ac-(06-34-18) 1NAL2] (Ac-CS[1Nal]PARCLHQDLC-NH2; linker 1-7-13 via TBMB),2
6,CC(=O)N[C@H]1CSCc2cc3cc(c2)CSC[C@H](NC(=O)[C@H](CCCNC(=N)N)NC(=O)[C@H](C)NC(=O)[C@@H]2CCCN2C(=O)[C@@H]2Cc4c([nH]c5ccccc45)CN2C(=O)[C@H](CO)NC1=O)C(=O)N[C@@H](CC(C)C)C(=O)N[C@@H](Cc1c[nH]cn1)C(=O)N[C@@H](CCC(N)=O)C(=O)N[C@@H](CC(=O)O)C(=O)N[C@@H](CC(C)C)C(=O)N[C@H](C(N)=O)CSC3 [Ac-(06-34-18) NorHar2] (Ac-CS[Tpi]PARCLHQDLC-NH2; linker 1-7-13 via TBMB),2

# Same assay, conditions: Table 13; method #1
row,SMILES,"Observable in rat plasma, for days [days]"
1,CC(=O)N[C@H]1CSCc2cc3cc(c2)CSC[C@H](NC(=O)[C@H](CCCNC(=N)N)NC(=O)[C@H](C)NC(=O)C(C)(C)NC(=O)[C@H](Cc2c[nH]c4ccccc24)NC(=O)[C@H](CO)NC1=O)C(=O)N[C@@H](CC(C)C)C(=O)N[C@@H](Cc1c[nH]cn1)C(=O)N[C@@H](CCC(N)=O)C(=O)N[C@@H](CC(=O)O)C(=O)N[C@@H](CC(C)C)C(=O)N[C@H](C(N)=O)CSC3 [Ac-(06-34-18) Aib3] (Ac-CSW[Aib]ARCLHQDLC-NH2; linker 1-7-13 via TBMB),2
2,CC(=O)N[C@H]1CSCc2cc3cc(c2)CSC[C@H](NC(=O)[C@H](CCCNC(=N)N)NC(=O)[C@H](C)NC(=O)[C@@H]2C[C@@H](c4ccccc4)CN2C(=O)[C@H](Cc2c[nH]c4ccccc24)NC(=O)[C@H](CO)NC1=O)C(=O)N[C@@H](CC(C)C)C(=O)N[C@@H](Cc1c[nH]cn1)C(=O)N[C@@H](CCC(N)=O)C(=O)N[C@@H](CC(=O)O)C(=O)N[C@@H](CC(C)C)C(=O)N[C@H](C(N)=O)CSC3 [Ac-(06-34-18) 4Phenyl Pro3] (Ac-CSW[Pro(trans-4-Ph)]ARCLHQDLC-NH2; linker 1-7-13 via TBMB),2
3,CC(=O)N[C@H]1CSCc2cc3cc(c2)CSC[C@H](NC(=O)[C@H](CCCNC(=N)N)NC(=O)[C@H](C)NC(=O)[C@@H]2Cc4ccccc4CN2C(=O)[C@H](Cc2c[nH]c4ccccc24)NC(=O)[C@H](CO)NC1=O)C(=O)N[C@@H](CC(C)C)C(=O)N[C@@H](Cc1c[nH]cn1)C(=O)N[C@@H](CCC(N)=O)C(=O)N[C@@H](CC(=O)O)C(=O)N[C@@H](CC(C)C)C(=O)N[C@H](C(N)=O)CSC3 [Ac-(06-34-18) Tic3] (Ac-CSW[Tic]ARCLHQDLC-NH2; linker 1-7-13 via TBMB),2
4,CC(=O)N[C@H]1CSCc2cc3cc(c2)CSC[C@H](NC(=O)[C@H](CCCNC(=N)N)NC(=O)[C@H](C)NC(=O)[C@@H]2Cc4c([nH]c5ccccc45)CN2C(=O)[C@H](Cc2c[nH]c4ccccc24)NC(=O)[C@H](CO)NC1=O)C(=O)N[C@@H](CC(C)C)C(=O)N[C@@H](Cc1c[nH]cn1)C(=O)N[C@@H](CCC(N)=O)C(=O)N[C@@H](CC(=O)O)C(=O)N[C@@H](CC(C)C)C(=O)N[C@H](C(N)=O)CSC3 [Ac-(06-34-18) NorHar3] (Ac-CSW[Tpi]ARCLHQDLC-NH2; linker 1-7-13 via TBMB),2
5,CC(=O)N[C@H]1CSCc2cc3cc(c2)CSC[C@H](NC(=O)[C@H](CCCNC(=N)N)NC(=O)[C@H](C)NC(=O)[C@@H]2C[C@@H](O)CN2C(=O)[C@H](Cc2c[nH]c4ccccc24)NC(=O)[C@H](CO)NC1=O)C(=O)N[C@@H](CC(C)C)C(=O)N[C@@H](Cc1c[nH]cn1)C(=O)N[C@@H](CCC(N)=O)C(=O)N[C@@H](CC(=O)O)C(=O)N[C@@H](CC(C)C)C(=O)N[C@H](C(N)=O)CSC3 [Ac-(06-34-18) HyP3] (Ac-CSW[Hyp]ARCLHQDLC-NH2; linker 1-7-13 via TBMB),2
6,CC(=O)N[C@H]1CSCc2cc3cc(c2)CSC[C@H](NC(=O)[C@H](CCCNC(=N)N)NC(=O)[C@H](C)NC(=O)[C@@H]2C[C@@H](F)CN2C(=O)[C@H](Cc2c[nH]c4ccccc24)NC(=O)[C@H](CO)NC1=O)C(=O)N[C@@H](CC(C)C)C(=O)N[C@@H](Cc1c[nH]cn1)C(=O)N[C@@H](CCC(N)=O)C(=O)N[C@@H](CC(=O)O)C(=O)N[C@@H](CC(C)C)C(=O)N[C@H](C(N)=O)CSC3 [Ac-(06-34-18) 4FluoPro3] (Ac-CSW[Pro(trans-4-F)]ARCLHQDLC-NH2; linker 1-7-13 via TBMB),2

# Same assay, conditions: Table 14; method #1
row,SMILES,"Observable in rat plasma, for days [days]"
1,CC(=O)N[C@H]1CSCc2cc3cc(c2)CSC[C@H](NC(=O)[C@H](CCCNC(=N)N)NC(=O)C(C)(C)NC(=O)[C@@H]2CCCN2C(=O)[C@H](Cc2c[nH]c4ccccc24)NC(=O)[C@H](CO)NC1=O)C(=O)N[C@@H](CC(C)C)C(=O)N[C@@H](Cc1c[nH]cn1)C(=O)N[C@@H](CCC(N)=O)C(=O)N[C@@H](CC(=O)O)C(=O)N[C@@H](CC(C)C)C(=O)N[C@H](C(N)=O)CSC3 [Ac-(06-34-18) Aib4] (Ac-CSWP[Aib]RCLHQDLC-NH2; linker 1-7-13 via TBMB),7
2,CC(=O)N[C@H]1CSCc2cc3cc(c2)CSC[C@H](NC(=O)[C@H](CCCNC(=N)N)NC(=O)CCNC(=O)[C@@H]2CCCN2C(=O)[C@H](Cc2c[nH]c4ccccc24)NC(=O)[C@H](CO)NC1=O)C(=O)N[C@@H](CC(C)C)C(=O)N[C@@H](Cc1c[nH]cn1)C(=O)N[C@@H](CCC(N)=O)C(=O)N[C@@H](CC(=O)O)C(=O)N[C@@H](CC(C)C)C(=O)N[C@H](C(N)=O)CSC3 [Ac-(06-34-18) β-Ala4] (Ac-CSWP[βAla]RCLHQDLC-NH2; linker 1-7-13 via TBMB),10
3,CC(=O)N[C@H]1CSCc2cc3cc(c2)CSC(C)(C)[C@H](NC(=O)[C@H](CCCNC(=N)N)NC(=O)[C@H](C)NC(=O)[C@@H]2CCCN2C(=O)[C@H](Cc2c[nH]c4ccccc24)NC(=O)[C@H](CO)NC1=O)C(=O)N[C@@H](CC(C)C)C(=O)N[C@@H](Cc1c[nH]cn1)C(=O)N[C@@H](CCC(N)=O)C(=O)N[C@@H](CC(=O)O)C(=O)N[C@@H](CC(C)C)C(=O)N[C@H](C(N)=O)CSC3 [Ac-(06-34-18) Cys2ToPen2] (Ac-CSWPAR[Pen]LHQDLC-NH2; linker 1-7-13 via TBMB),5

# Same assay, conditions: Table 21; method #1
row,SMILES,"Observable in rat plasma, for days [days]"
1,CC(=O)N[C@H]1CSCc2cc3cc(c2)CSC[C@H](NC(=O)[C@H](CCCNC(=N)N)NC(=O)[C@H](CO)NC(=O)[C@@H]2CCCN2C(=O)[C@H](Cc2c[nH]c4ccccc24)NC(=O)[C@H](CO)NC1=O)C(=O)N[C@@H](CC(C)C)C(=O)N[C@@H](Cc1c[nH]cn1)C(=O)N[C@@H](CCC(N)=O)C(=O)N[C@@H](CC(=O)O)C(=O)N[C@@H](CC(C)C)C(=O)N[C@H](C(N)=O)CSC3 [Ac-(06-34-18) WPSR] (Ac-CSWPSRCLHQDLC-NH2; linker 1-7-13 via TBMB),2
